In patent US12558428B2, “Heterobifunctional compounds and their use in treating disease” (Halda Therapeutics OpCo, Inc., priority 2024, dated 2026) one finds GI50 data, which are given here for 23 compounds.

Like-named read-outs stand apart in the source and are kept apart here.

Test [1] concerns T-Rex 293 cells having increased expression of estrogen receptor alpha protein. In words: Cellular growth inhibition assay, T-Rex 293 cells, (+) doxycycline. The test is classed as cell-based. Particulars: T-REx-293, 72 h, 72 hours. As to the method: (§1) Exemplary compounds were tested for the ability to inhibit the proliferation of the following types of cells: (i) a T-Rex 293 cell line having increased expression of estrogen receptor alpha protein from exposure to doxycycline and (ii) a T-Rex 293 cell line lacking increased expression of estrogen receptor alpha protein.
(§2) The following types of cells were prepared for this experiment: (i) a T-Rex 293 cell line having increased expression of estrogen receptor alpha protein from exposure to doxycycline and (ii) a T-Rex 293 cell line lacking increased expression of estrogen receptor alpha protein. The ability of the test compounds to inhibit proliferation of the foregoing cell types was evaluated according to the procedures set forth below.
(§3) The doxycycline-inducible estrogen receptor alpha protein expressing cell line was established using the following protocol: T-Rex 293 cells were purchased from Invitrogen (Cat #R71007) and transfected using Lipofectamine 2000 with the wild-type estrogen receptor alpha protein sequence cloned into the pcDNA4/TO vector. Transfected cells were selected using 400 μg/mL Zeocin (Invitrogen Cat #R25001). Following selection, single clones were raised and maintained in Dulbecco's Modified Eagle Medium (DMEM) supplemented with 10% w/w Tetracycline-free fetal bovine serum (FBS) and 250 μg/mL Zeocin. Clones were analyzed for expression of estrogen receptor alpha protein in the presence and absence of 3 ng/mL doxycycline (Sigma Cat #D9891), and a single doxycycline-inducible clone (hereinafter “SC”) was selected for use in downstream assays.
(§4) The SC cells were seeded on poly-D-lysine coated, black clear-bottom 384-well plates at 2500/well, in 25 μL Phenol Red Free Dulbecco's Modified Eagle Medium (DMEM) supplemented with 10% w/w charcoal-dextran treated fetal bovine serum (FBS) and 1% w/w pen-strep, with or without 3 ng/mL doxycycline. Pen-Strep is a commercially available mixture of penicillin G and streptomycin, which is used in mammalian cell culture media to prevent bacterial contamination. Phenol Red Free Dulbecco's Modified Eagle Medium (DMEM) supplemented with 10% w/w charcoal-dextran treated fetal bovine serum (FBS) and 1% w/w pen-strep, with or without 3 ng/mL doxycycline is herein referred to as Treatment Medium. Following seeding of cells in the plates, the plates were spun at 300×g for 30 seconds, then equilibrated to room temperature for 30 minutes, and then deposited in a humidified tissue culture incubator maintained at 37° C. with 5% CO2.
(§5) At 24 hours after seeding of the cells, dilutions of test compound were prepared in DMSO and dissolved in Treatment Medium, to achieve a final DMSO concentration of 0.5% w/w, thereby providing the Test Compound Solution. A 25 μL aliquot of the Test Compound Solution was added to cells in the well plates. An equal volume of a solution containing DMSO and Treatment Medium was used as a negative control. Following treatment of cells with Test Compound Solution or said equal volume of a solution containing DMSO and Treatment Medium, the plates were spun at 300×g for 30 seconds, and then left in an incubator for 72 hours.
(§6) At the end of the treatment duration, cell viability was quantified with CellTiter-Glo 2.0 reagent (Promega Cat #G9243). For this purpose, plates were equilibrated to room temperature for 30 minutes, and then 25 μL of CellTiter-Glo 2.0 reagent was added to cells in the plate wells. Plates were then agitated on a shaker for two minutes at 500 rpm and subsequently incubated at room temperature for 10 minutes. Following incubation, the plates were spun at 3000×g for 30 seconds, then sealed with an optical adhesive cover, and luminescence readings were measured with an EnVision Plate Reader (Perkin Elmer).
(§7) Data was normalized using zero luminescence for baseline. […]

Test [2] concerns T-Rex 293 cells lacking increased expression of estrogen receptor alpha protein. In words: Cellular growth inhibition assay, T-Rex 293 cells, (−) doxycycline. The following applies: T-REx-293, 72 h, 72 hours. The test is classed as cell-based. The protocol: as §1, §2, §3, §4, §5, §6, §7
[3] abbreviates: Table 7-A, T-Rex 293 cells with doxycycline (increased ERα expression), CellTiter-Glo, read-out: (+) Dox GI50.
[4] abbreviates: Table 7-A, T-Rex 293 cells without doxycycline (lacking increased ERα expression), CellTiter-Glo, read-out: (−) Dox GI50.

The term GI50 denotes the concentration that inhibits growth by half. `COc1cc(N2CCN(CC3(O)CCN(c4ccc(C5=N[C@@H](C)c6nnc(C)n6-c6sc(C)c(C)c65)cc4)CC3)CC2)ccc1[C@@H]1c2ccc(O)cc2CC[C@@H]1c1ccccc1` (single isomer, unassigned) [III-321]: the concentration for 50% growth inhibition (GI50) in test [1] (setting [3]) is below 0.05 µM; in test [2] (setting [4]), 0.5 to 2.5 µM.

`COc1cc(N2CCN(CC3(O)CCN(c4ccc(C5=N[C@@H](C)c6nnc(C)n6-c6sc(C)c(C)c65)cc4)CC3)CC2)ccc1[C@H]1c2ccc(O)cc2CC[C@H]1c1ccccc1` (single isomer, unassigned) [III-322]: the GI50 in test [1] (setting [3]) and in test [2] (setting [4]) was 0.05 to 0.5 µM each time.

With `COc1cc(N2CCN(CC3(O)CCN(c4ccc(C5=N[C@@H](C)c6nnc(C)n6-c6sc(C)c(C)c65)c(F)c4)CC3)CC2)ccc1[C@H]1c2ccc(O)cc2CC[C@H]1c1ccc(F)cc1` (single isomer, unassigned) [III-327], the concentration for 50% growth inhibition (GI50) in test [1] (setting [3]) and in test [2] (setting [4]) was 0.05 to 0.5 µM throughout.

In the case of `COc1cc(N2CCN(CC3(O)CCN(c4ccc(C5=N[C@@H](C)c6nnc(C)n6-c6sc(C)c(C)c65)cc4)CC3)CC2)ccc1[C@H]1c2ccc(O)cc2CC[C@H]1c1ccc(F)cc1F` (single isomer, unassigned) [III-333], the 50% growth inhibitory concentration (GI50) fell in the range of 0.05 to 0.5 µM in test [1] (setting [3]) and 0.5 to 2.5 µM in test [2] (setting [4]).

As to `COc1cc(N2CCN(CC3(O)CCN(c4ccc(C5=N[C@@H](C)c6nnc(C)n6-c6sc(C)c(C)c65)cc4)CC3)CC2)ccc1[C@@H]1c2ccc(O)cc2CC[C@@H]1c1ccc(F)cc1F` (single isomer, unassigned) [III-334], the figures for the GI50 in test [1] (setting [3]) and in test [2] (setting [4]) were below 0.05 µM and 0.5 to 2.5 µM, respectively.

For the compound `COc1ccc([C@@H]2CCc3cc(O)ccc3[C@@H]2c2ccc(N3CCN(CC4(O)CCN(c5ccc(C6=N[C@@H](C)c7nnc(C)n7-c7sc(C)c(C)c76)cc5)CC4)CC3)cc2Cl)cc1` (single isomer, unassigned) [III-335], the GI50 in test [1] (setting [3]) fell in the range of 0.05 to 0.5 µM; in test [2] (setting [4]), 0.5 to 2.5 µM.

Regarding `COc1ccc([C@H]2CCc3cc(O)ccc3[C@H]2c2ccc(N3CCN(CC4(O)CCN(c5ccc(C6=N[C@@H](C)c7nnc(C)n7-c7sc(C)c(C)c76)cc5)CC4)CC3)cc2Cl)cc1` (single isomer, unassigned) [III-336], the GI50 in test [1] (setting [3]) was below 0.05 µM; in test [2] (setting [4]), 0.5 to 2.5 µM.

`Cn1cc(-c2cc(C(C)(C)O)ccc2Oc2ccc(N3CCN(CC4CCN(c5ccc([C@@H]6c7ccc(O)cc7CC[C@@H]6c6ccccc6)cc5)CC4)CC3)cc2)c2cc[nH]c2c1=O` [I-18, 4-(2-(4-(4-((1-(4-((1R,2S)-6-hydroxy-2-phenyl-1,2,3,4-tetrahydronaphthalen-1-yl)phenyl)piperidin-4-yl)methyl)piperazin-1-yl)phenoxy)-5-(2-hydroxypropan-2-yl)phenyl)-6-methyl-1,6-dihydro-7H-pyrrolo[2,3-c]pyridin-7-one]: the 50% growth inhibitory concentration (GI50) in test [1] (T-Rex 293 cells with doxycycline-induced ERα expression, CellTiter-Glo 2.0, read-out: (+) Dox TRex ERa (GI50)) was below 0.05 µM; in test [2] (T-Rex 293 cells without doxycycline, CellTiter-Glo 2.0, read-out: (−) Dox TRex ERa (GI50)), 0.05 to 0.5 µM.

Turning to `Cc1sc2c(c1C)C(c1ccc(N3CC(N4CCN(CCOc5ccc([C@@H]6c7ccc(O)cc7CC[C@@H]6c6ccccc6)cc5)CC4)C3)cc1)=NC(Cc1ncco1)c1nnc(C)n1-2` (stereo partly shown) [III-41], the GI50 is below 0.05 µM in test [1] (setting [3]) and 0.05 to 0.5 µM in test [2] (setting [4]).

As for `COc1cc(N2CCN(CC3CCN(c4ccc(C5=N[C@@H](C)c6nnc(C)n6-c6sc(C)c(C)c65)cc4)CC3)CC2)c(F)cc1[C@@H]1c2ccc(O)cc2CC[C@@H]1c1ccc(F)cc1` [III-313], the GI50 in test [1] (setting [3]) is below 0.05 µM; in test [2] (setting [4]), 0.5 to 2.5 µM.

On to `COc1cc(N2CCN(CC3CCN(c4ccc(C5=N[C@@H](C)c6nnc(C)n6-c6sc(C)c(C)c65)cc4)CC3)CC2)c(F)cc1[C@H]1c2ccc(O)cc2CC[C@H]1c1ccc(F)cc1` [III-314], for which the concentration for 50% growth inhibition (GI50) in test [1] (setting [3]) fell in the range of 0.05 to 0.5 µM; in test [2] (setting [4]), 0.5 to 2.5 µM.

For `COc1cc(N2CCN(CC3CCN(c4ccc(C5=N[C@@H](C)c6nnc(C)n6-c6sc(C)c(C)c65)cc4)CC3)CC2)ccc1[C@H]1c2ccc(O)cc2CC[C@H]1c1ccc(F)cc1` [III-315], the GI50 in test [1] (setting [3]) and in test [2] (setting [4]) was 0.5 to 2.5 µM throughout.

On to `COc1cc(N2CCN(CC3CCN(c4ccc(C5=N[C@@H](C)c6nnc(C)n6-c6sc(C)c(C)c65)cc4)CC3)CC2)ccc1[C@@H]1c2ccc(O)cc2CC[C@@H]1c1ccc(F)cc1` [III-316], for which the GI50 was below 0.05 µM in test [1] (setting [3]) and 0.5 to 2.5 µM in test [2] (setting [4]).

As to `COc1cc(N2CCN(CC3(O)CCN(c4ccc(C5=N[C@@H](C)c6nnc(C)n6-c6sc(C)c(C)c65)cc4)CC3)CC2)c(F)cc1[C@H]1c2ccc(O)cc2CC[C@H]1c1ccc(F)cc1` [III-319], the GI50 in test [1] (setting [3]) is below 0.05 µM; in test [2] (setting [4]) it was 0.05 to 0.5 µM.

Take `COc1cc(N2CCN(CC3(O)CCN(c4ccc(C5=N[C@@H](C)c6nnc(C)n6-c6sc(C)c(C)c65)cc4)CC3)CC2)c(F)cc1[C@@H]1c2ccc(O)cc2CC[C@@H]1c1ccc(F)cc1` [III-320]: the concentration for 50% growth inhibition (GI50) is below 0.05 µM in test [1] (setting [3]) and 0.5 to 2.5 µM in test [2] (setting [4]).

On to `Cc1sc2c(c1C)C(c1ccc(N3CCC(CN4CCN(c5ccc([C@@H]6c7ccc(O)cc7CC[C@@H]6c6ccccc6F)c(F)c5)CC4)CC3)cc1)=N[C@@H](C)c1nnc(C)n1-2` [III-323], for which the GI50 in test [1] (setting [3]) was below 0.05 µM; in test [2] (setting [4]) it was 0.5 to 2.5 µM.

As to `Cc1sc2c(c1C)C(c1ccc(N3CCC(CN4CCN(c5ccc([C@H]6c7ccc(O)cc7CC[C@H]6c6ccccc6F)c(F)c5)CC4)CC3)cc1)=N[C@@H](C)c1nnc(C)n1-2` [III-324], the GI50 in test [1] (setting [3]) and in test [2] (setting [4]) was 0.05 to 0.5 µM throughout.

As to `Cc1sc2c(c1C)C(c1ccc(N3CCC(CN4CCN(c5ccc([C@@H]6c7ccc(O)cc7CC[C@@H]6c6cccc(F)c6)c(F)c5)CC4)CC3)cc1)=N[C@@H](C)c1nnc(C)n1-2` [III-325], the concentration for 50% growth inhibition (GI50) in test [1] (setting [3]) was 0.05 to 0.5 µM; in test [2] (setting [4]), 0.5 to 2.5 µM.

Regarding `Cc1sc2c(c1C)C(c1ccc(N3CCC(CN4CCN(c5ccc([C@H]6c7ccc(O)cc7CC[C@H]6c6cccc(F)c6)c(F)c5)CC4)CC3)cc1)=N[C@@H](C)c1nnc(C)n1-2` [III-326], the 50% growth inhibitory concentration (GI50) in test [1] (setting [3]) and in test [2] (setting [4]) was 0.5 to 2.5 µM each time.

`COc1cc(N2CCN(CC3(O)CCN(c4ccc(C5=N[C@@H](C)c6nnc(C)n6-c6sc(C)c(C)c65)c(F)c4)CC3)CC2)ccc1[C@@H]1c2ccc(O)cc2CC[C@@H]1c1ccc(F)cc1` [III-328, 1-(3-fluoro-4-((6S)-2,3,6,9-tetramethyl-6H-thieno[3,2-f][1,2,4]triazolo[4,3-a][1,4]diazepin-4-yl)phenyl)-4-((4-(4-((1S,2S)-2-(4-fluorophenyl)-6-hydroxy-1,2,3,4-tetrahydronaphthalen-1-yl)-3-methoxyphenyl)piperazin-1-yl)methyl)piperidin-4-ol]: the GI50 was below 0.05 µM in test [1] (setting [3]) and 0.5 to 2.5 µM in test [2] (setting [4]).

With `COc1cc(N2CCN(CC3CCN(c4ccc(C5=N[C@@H](C)c6nnc(C)n6-c6sc(C)c(C)c65)cc4)CC3)CC2)ccc1[C@H]1c2ccc(O)cc2CC[C@H]1c1ccc(C)cc1` [III-329], the 50% growth inhibitory concentration (GI50) in test [1] (setting [3]) and in test [2] (setting [4]) was 0.05 to 0.5 µM in each case.

On to `COc1cc(N2CCN(CC3CCN(c4ccc(C5=N[C@@H](C)c6nnc(C)n6-c6sc(C)c(C)c65)cc4)CC3)CC2)ccc1[C@@H]1c2ccc(O)cc2CC[C@@H]1c1ccc(C)cc1` [III-330], for which the figures for the GI50 in test [1] (setting [3]) and in test [2] (setting [4]) were below 0.05 µM and 0.05 to 0.5 µM, respectively.

For the compound `COc1cc(N2CCN(CC3CCN(c4ccc(C5=N[C@@H](C)c6nnc(C)n6-c6sc(C)c(C)c65)c(F)c4)CC3)CC2)ccc1[C@H]1c2ccc(O)cc2CC[C@H]1c1ccc(C)cc1` [III-331], the 50% growth inhibitory concentration (GI50) in test [1] (setting [3]) and in test [2] (setting [4]) was 0.5 to 2.5 µM throughout.
